# Laboratory results reported in patent US20190314311A1, “PHARMACEUTICAL COMPOSITION” (JAPAN SCIENCE AND TECHNOLOGY AGENCY, priority 2016, published 2019).
# Test system: Q40-GFP expressing nematode line
# Assay: SDD-AGE of polyQ oligomers in nematode lysates
# Format: in vivo, Caenorhabditis elegans
# Settings: 10 mM arginine
# Experimental: SDD-AGE was performed as follows. First, nematodes were lysed in lysis buffer (0.5% SDS, 0.5% NP-40, 50 mM Tris-HCl, 150 mM NaCl, 5 mM EDTA, protease inhibitor cocktail), the resulting lysate was run on a 1% agarose gel with 0.01% SDS in a running buffer of Tris-Glycine containing 0.01% SDS, and then transferred overnight onto a nitrocellulose membrane. For subsequent western blot analysis, the membrane was incubated with the anti-GFP antibody (MBL Life sciences) at 10,000 dilution as the primary antibody at 4° C. overnight, and then with the HRP-conjugated anti-rabbit IgG antibody (MBL Life sciences) at 20,000 dilution as the secondary antibody. Immunoblots were imaged using the Lumino image analyzer system “ImageQuant LAS 4000” (GE Healthcare Life Sciences) and analyzed using “ImageQuantTL” (GE Healthcare Life Sciences).
smiles,measurement,value
N=C(N)NCCC[C@H](N)C(=O)O [arginine],smear intensity by image analysis,became smaller
same,smear of Q40-GFP oligomers (SDD-AGE image),much lighter and less broad smear
